In US12643871B2, “Aryl formamide compound containing chiral sulfur oxide or salt thereof, preparation method, herbicidal composition and use thereof” (Qingdao Kingagroot Chemical Compound Co., Ltd., priority 2019, dated 2026):

Experiments:
Assay in all cases: Weeding effect in post-emergence stage
Format in all cases: in vivo
Conditions in all cases: 250 g/ha; 2 leaf stage; 15 days after application; fresh weight control rate
Amaranthus retroflexus = tested on: Amaranthus retroflexus
Text: (§1) The activity level criteria for harmful plant damage (i.e., growth control rate) are as follows: • Level 5: growth control rate is above 85%; • Level 4: growth control rate is greater than or equal to 60% and less than 85%; • Level 3: growth control rate is greater than or equal to 40% and less than 60%; • Level 2: growth control rate is greater than or equal to 20% and less than 40%; • Level 1: growth control rate is greater than or equal to 5% and less than 20%; • Level 0: growth control rate is less than 5%.
(§2) The above growth control rates are fresh weight control rates.
(§3) Experiment on weeding effect in post-emergence stage: monocotyledonous and dicotyledonous weed seeds (Descurainia sophia, Capsella bursa-pastoris, Galium aparine, Stellaria media, Lithospermum arvense, Rorippa indica, Alopecurus aequalis, Beckmannia syzigachne, Sclerochloa dura, Phleum paniculatum, Bromus japonicus, Aegilops tauschii, Phalaris arundinacea, Amaranthus retroflexus, Chenopodiaceae, Commelina communis, Sonchus arvensis, convolvulus arvensis, Cirsium setosum, Solanum nigrum, Acalypha australis, Digitaria sanguinalis, Echinochloa crusgalli, Setaria viridis, Setaria glauca, Leptochloa chinensis, Monochoria vaginalis, Sagittaria trifolia, Scirpus juncoides, Cyperus rotundus, Cyperus iria, Cyperus difformis, Fimbristylis, Portulaca oleracea, Xanthium sibiricum, Pharbitis nil) and major crop seeds (wheat, corn, rice, soybean, cotton, oilseed rape, millet, sorghum, potato, sesame, ricinus) were placed in plastic pots filled with soil, then covered with 0.5-2 cm of soil, allowed to grow in a good greenhouse environment. After 2 weeks of sowing, the test plants were treated in the 2 leaf stage. The tested compounds of the present invention were respectively dissolved in acetone, then added with Tween 80 and 1.5 liter/ha of emulsifiable concentrate of methyl oleate as synergist, diluted with a certain amount of water to obtain a solution with a certain concentration, and sprayed with a spray tower onto the plants. After the application, the plants were cultured for 15 days in the greenhouse, and then the experimental results of the weeding were counted. The doses of the used compounds were 500, 250, 125, 60, 30, 15 g/ha, and the averages were obtained by repeating for three times.

Digitaria sanguinalis = tested on: Digitaria sanguinalis
Text: as §1, §2, §3

Echinochloa crusgali = tested on: Echinochloa crusgali
Text: as §1, §2, §3

Row | SMILES | weeding effect in post-emergence stage, activity level (growth control rate), Amaranthus retroflexus (Amaranthus retroflexus) | weeding effect in post-emergence stage, activity level (growth control rate), Digitaria sanguinalis (Digitaria sanguinalis) | weeding effect in post-emergence stage, activity level (growth control rate), Echinochloa crusgali (Echinochloa crusgali)
1 | CSc1c(C(=O)Nc2nnnn2C)ccc(C(F)(F)F)c1[S@+]([O-])CCF [Compound 596] | 5 (Level 5: growth control rate is above 85%) | 5 (Level 5: growth control rate is above 85%) | 5 (Level 5: growth control rate is above 85%)
2 | CSC(=O)C[S@@+]([O-])c1c(C(F)(F)F)ccc(C(=O)Nc2nnc(C)o2)c1F [Compound 597] | 5 (Level 5: growth control rate is above 85%) | 5 (Level 5: growth control rate is above 85%) | 5 (Level 5: growth control rate is above 85%)
3 | CSCCC[S@@+]([O-])c1c(C(F)(F)F)ccc(C(=O)Nc2nnc(C)o2)c1F [Compound 598] | 5 (Level 5: growth control rate is above 85%) | 5 (Level 5: growth control rate is above 85%) | 5 (Level 5: growth control rate is above 85%)
4 | CSCCC[S@@+]([O-])c1c(C(F)(F)F)ccc(C(=O)Nc2nnc(C)o2)c1SC [Compound 599] | 5 (Level 5: growth control rate is above 85%) | 5 (Level 5: growth control rate is above 85%) | 5 (Level 5: growth control rate is above 85%)
5 | CCC[S@@+]([O-])c1c(C(F)(F)F)ccc(C(=O)Nc2ncn[nH]2)c1F [Compound 600] | 5 (Level 5: growth control rate is above 85%) | 5 (Level 5: growth control rate is above 85%) | 5 (Level 5: growth control rate is above 85%)
6 | Cc1c(C(=O)Nc2nnnn2C)ccc(S(C)(=O)=O)c1[S@+]([O-])CCCC(F)(F)F [Compound 601] | 5 (Level 5: growth control rate is above 85%) | 5 (Level 5: growth control rate is above 85%) | 5 (Level 5: growth control rate is above 85%)
7 | Cc1nnc(NC(=O)c2ccc(S(C)(=O)=O)c([S@+]([O-])CCC(C)(C)C)c2C)o1 [Compound 602] | 5 (Level 5: growth control rate is above 85%) | 5 (Level 5: growth control rate is above 85%) | 5 (Level 5: growth control rate is above 85%)
8 | Cc1c(C(=O)Nc2nnnn2C)ccc(S(C)(=O)=O)c1[S@+]([O-])CCC(C)(C)C [Compound 603] | 5 (Level 5: growth control rate is above 85%) | 5 (Level 5: growth control rate is above 85%) | 5 (Level 5: growth control rate is above 85%)
9 | Cc1nnc(NC(=O)c2ccc(S(C)(=O)=O)c([S@+]([O-])CC(=O)N(C)C)c2C)o1 [Compound 604] | 5 (Level 5: growth control rate is above 85%) | 5 (Level 5: growth control rate is above 85%) | 5 (Level 5: growth control rate is above 85%)
10 | Cc1c(C(=O)Nc2nnnn2C)ccc(S(C)(=O)=O)c1[S+]([O-])COC(=O)C(C)(C)C (stereo not drawn) [Compound 605] | 5 (Level 5: growth control rate is above 85%) | 5 (Level 5: growth control rate is above 85%) | 5 (Level 5: growth control rate is above 85%)
11 | Cc1c(C(=O)Nc2nnnn2C)ccc(S(C)(=O)=O)c1[S@+]([O-])CC(=O)N(C)C [Compound 606] | 5 (Level 5: growth control rate is above 85%) | 5 (Level 5: growth control rate is above 85%) | 5 (Level 5: growth control rate is above 85%)
12 | Cc1c(C(=O)Nc2nnnn2C)ccc(S(C)(=O)=O)c1[S@+]([O-])CCO [Compound 607] | 5 (Level 5: growth control rate is above 85%) | 5 (Level 5: growth control rate is above 85%) | 5 (Level 5: growth control rate is above 85%)
13 | Cc1c(C(=O)Nc2nnnn2C)ccc(S(C)(=O)=O)c1[S@+]([O-])CCC#N [Compound 608] | 5 (Level 5: growth control rate is above 85%) | 5 (Level 5: growth control rate is above 85%) | 5 (Level 5: growth control rate is above 85%)
14 | CC(=O)C[S@@+]([O-])c1c(S(C)(=O)=O)ccc(C(=O)Nc2nnnn2C)c1C [Compound 609] | 5 (Level 5: growth control rate is above 85%) | 5 (Level 5: growth control rate is above 85%) | 5 (Level 5: growth control rate is above 85%)
15 | Cc1nnc(NC(=O)c2ccc(S(C)(=O)=O)c([S@+]([O-])CCC#N)c2C)o1 [Compound 610] | 5 (Level 5: growth control rate is above 85%) | 5 (Level 5: growth control rate is above 85%) | 5 (Level 5: growth control rate is above 85%)
16 | CC(=O)C[S@@+]([O-])c1c(S(C)(=O)=O)ccc(C(=O)Nc2nnc(C)o2)c1C [Compound 611] | 5 (Level 5: growth control rate is above 85%) | 5 (Level 5: growth control rate is above 85%) | 5 (Level 5: growth control rate is above 85%)
17 | CCOCCn1nnnc1NC(=O)c1ccc(S(C)(=O)=O)c([S@+]([O-])CC)c1C [Compound 612] | 5 (Level 5: growth control rate is above 85%) | 5 (Level 5: growth control rate is above 85%) | 5 (Level 5: growth control rate is above 85%)
18 | C=CCC[S@@+]([O-])c1c(S(C)(=O)=O)ccc(C(=O)Nc2nnnn2C)c1C [Compound 619] | 5 (Level 5: growth control rate is above 85%) | 5 (Level 5: growth control rate is above 85%) | 5 (Level 5: growth control rate is above 85%)
19 | Cc1c(C(=O)Nc2nnnn2C)ccc(S(C)(=O)=O)c1[S@+]([O-])CC(C)O (stereo partly drawn) [Compound 620] | 5 (Level 5: growth control rate is above 85%) | 5 (Level 5: growth control rate is above 85%) | 5 (Level 5: growth control rate is above 85%)
20 | Cc1nnc(NC(=O)c2ccc(Cl)c([S@@+](C)[O-])c2Cl)o1 [Compound 621] | 5 (Level 5: growth control rate is above 85%) | 5 (Level 5: growth control rate is above 85%) | 5 (Level 5: growth control rate is above 85%)
21 | CC[S@@+]([O-])c1c(S(C)(=O)=O)ccc(C(=O)Nc2nnnn2CCOC)c1C [Compound 622] | 5 (Level 5: growth control rate is above 85%) | 5 (Level 5: growth control rate is above 85%) | 5 (Level 5: growth control rate is above 85%)
